From PubChem BioAssay (NCI)
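Dose response: 5 concentrations. Exposure: 48 h. Format: 96-well plates. Endpoint: linear interpolation; highest concentration if not reached. Here, GI50 denotes the concentration required for 50% inhibition of growth. At the TGI there is no net growth.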

Columns and labels:
Assay in all cases: NCI-60 cell line screen, 48 h
NCI-H522 lung = test system: NCI-H522 lung
HL-60(TB) leukemia = test system: HL-60(TB) leukemia
MDA-N = test system: MDA-N
LOX IMVI melanoma = test system: LOX IMVI melanoma
OVCAR-4 ovarian = test system: OVCAR-4 ovarian
HT29 colon = test system: HT29 colon
U251 CNS = test system: U251 CNS
OVCAR-8 ovarian = test system: OVCAR-8 ovarian
SNB-19 CNS = test system: SNB-19 CNS
MDA-MB-435 = test system: MDA-MB-435

Compound	TGI (NCI-H522 lung) [µM]	TGI (HL-60(TB) leukemia) [µM]	TGI (MDA-N) [µM]	TGI (LOX IMVI melanoma) [µM]	TGI (OVCAR-4 ovarian) [µM]	TGI (HT29 colon) [µM]	TGI (U251 CNS) [µM]	TGI (OVCAR-8 ovarian) [µM]	TGI (SNB-19 CNS) [µM]	TGI (MDA-MB-435) [µM]	GI50 (NCI-H522 lung) [µM]	GI50 (HL-60(TB) leukemia) [µM]	GI50 (OVCAR-4 ovarian) [µM]	GI50 (OVCAR-8 ovarian) [µM]	GI50 (MDA-MB-435) [µM]
O=c1[nH]nc(-c2ccc([N+](=O)[O-])cc2)[nH]1	> 100	> 100	> 100	> 100	> 100	> 100	> 100	> 100	> 100	> 100	–	–	–	–	–
CC1=CC(O)CC(C)(C)C1/C=C/C(C)=C/C=C/C(C)=C/C=C/C=C(C)/C=C/C=C(C)/C=C/C1=C(C)CC(O)CC1(C)C (stereo not given)	30	> 100	37.8	> 100	66.9	30.3	–	39.5	> 100	33.9	–	–	–	–	–
C=CCN(c1cc(OC)c2[nH]c(C(=O)O)c(C)c2c1[N+](=O)[O-])S(C)(=O)=O	> 100	> 100	> 100	> 100	> 100	–	> 100	> 100	> 100	> 100	–	–	–	–	–
Fc1cccc(F)c1C1SCc2nc3cc(Cl)ccc3n21 (stereo not given)	> 100	41.3	> 100	40	> 100	31.3	> 31.6	> 100	> 100	> 100	–	–	–	–	–
Cc1ccc2nc(Nc3ccccc3C)c(Nc3ccccc3C)nc2c1	35.9	> 74.6	67.1	39.5	> 100	> 81.1	> 70	> 100	> 100	> 94.2	–	–	–	–	–
COc1cc2c3cc1Oc1cc(ccc1O)C[C@@H]1c4c(cc(OC)c(O)c4Oc4ccc(cc4)C[C@@H]3[N+](C)(C)CC2)CC[N+]1(C)C	> 100	> 100	> 100	42.5	> 100	> 100	> 100	> 100	> 100	> 100	–	–	–	–	–
Nc1cc2nc(-c3ccccc3)cn2cn1	–	> 100	> 100	> 100	> 100	> 100	> 100	> 100	> 100	> 100	–	–	–	–	–
COC(=O)[C@@H]1[C@H]2CC[C@]3(C)[C@@H](OC(C)=O)CC[C@H]3[C@@H]2CC[C@H]1C1(C)SCCS1	56.7	36.8	47.3	34.6	75.2	30	54.4	70.6	> 100	35.3	–	–	–	–	–
O=c1cccc2n1CC1CNCC2C1 (stereo not given)	–	> 100	> 100	> 100	> 100	> 100	> 100	> 100	> 100	> 100	–	–	–	–	–
CCCCCc1cc(CCCC)sc1-c1ccco1	> 100	58.8	> 100	> 100	> 100	> 100	> 100	> 100	> 100	> 100	–	–	–	–	–
CC(=O)N=S(NC(=O)c1ccc(C)cc1)C(Cl)(Cl)Cl (stereo not given)	–	26.9	> 100	80.1	77.7	60.6	59.3	33.1	> 100	40.7	–	–	–	–	–
CCOP(=O)(CC1OC(CO)C(O)C1O)OCC (stereo not given)	> 100	> 100	> 100	> 100	> 100	> 61.8	> 100	–	> 100	> 100	–	–	–	–	–
CC(Br)CN(CC(C)Br)c1ccc2c(c1)Cc1ccccc1-2 (stereo not given)	21.2	15.6	30.7	23.2	25.9	25.9	22.7	25.2	27.9	28	–	–	–	–	–
CCc1nc2c([nH]1)C(=O)c1ccccc1C2=O	> 100	94.7	–	–	> 100	> 100	> 100	> 100	> 100	–	–	–	–	–	–
CC1OC2OC3C(OCC(O)C3O)OC(=O)[C@]34CCC(C)(C)CC3C3=CCC5[C@@]6(C)C[C@H](O)[C@H](OC7OC(CO)C(O)C(O)C7OC7OC(COC(=O)CC(C)(O)CC(=O)OC1C(OC1OC(CO)C(O)C(O)C1O)C2O)C(O)C(O)C7O)[C@@](C)(CO)C6CC[C@@]5(C)[C@]3(C)CC4 (stereo not given in full)	5.89	3.13	2.65	12.1	16.1	3.35	9.26	13.1	16	4.71	–	–	–	–	–
Cc1cccc2c(N)c3cccc(C(=O)NCC[N+](C)(C)[O-])c3nc12	–	> 100	42.7	> 100	28.2	60.3	> 100	36.6	> 100	41.5	–	–	–	–	–
O/N=C/[C@H]1COC2(CCCCC2)O1	–	–	> 100	> 100	> 100	> 100	> 100	> 100	> 100	> 100	–	–	–	–	–
C/C(=C\CO)CC[C@@H]1[C@@]2(C)CCCC(C)(C)[C@@H]2CC[C@@]1(C)O	31.4	45.7	38	30.2	34.2	51.2	31	31.8	42.9	34.6	–	–	–	–	–
C[C@@](Br)(C(=O)O)[C@H](Br)C(=O)O	–	> 100	> 100	> 100	> 100	> 100	> 100	> 100	> 100	> 100	–	–	–	–	–
CC1=NN(c2cccc(Cl)c2)C2(C1=Cc1ccc(N(C)C)cc1)C(Cl)C(=O)N2c1nc2ccccc2s1 (stereo not given)	43.1	> 100	> 100	> 100	> 100	> 100	> 100	> 100	–	72.3	–	–	–	–	–
CC(=O)OC1COC(N2c3ccccc3[C@@H]3CCc4c([nH]c5ccccc45)[C@@H]32)C(OC(C)=O)C1OC(C)=O (mixture of isomers)	> 100	–	> 100	–	> 100	> 100	> 100	–	> 100	> 100	–	–	–	–	–
O=C(/C=C/CC(O)(c1ccccc1)c1ccccc1)Nc1ccccc1Cl	> 100	> 100	–	–	> 100	> 100	> 100	> 100	> 100	–	–	–	–	–	–

Compound	TGI (NCI-H522 lung) [µM]	TGI (HL-60(TB) leukemia) [µM]	TGI (MDA-N) [µM]	TGI (LOX IMVI melanoma) [µM]	TGI (OVCAR-4 ovarian) [µM]	TGI (HT29 colon) [µM]	TGI (U251 CNS) [µM]	TGI (OVCAR-8 ovarian) [µM]	TGI (SNB-19 CNS) [µM]	TGI (MDA-MB-435) [µM]	GI50 (NCI-H522 lung) [µM]	GI50 (HL-60(TB) leukemia) [µM]	GI50 (OVCAR-4 ovarian) [µM]	GI50 (OVCAR-8 ovarian) [µM]	GI50 (MDA-MB-435) [µM]
CC(C)(C)C#CI1OC(=O)c2ccccc21	3.82	–	23.4	3.89	8.08	22.8	11.2	23.3	22.9	18.4	–	–	–	–	–
COC(=O)c1ccc2cc(O)ccc2c1	> 100	–	> 100	> 100	> 100	> 100	> 100	> 100	> 100	> 100	–	–	–	–	–
Cn1c2ccccc2c2c3c(=O)[nH][nH]c(=O)c3c3c4ccccc4n(C)c3c21	> 100	–	> 100	> 100	> 100	> 100	> 100	> 100	> 100	> 100	–	–	–	–	–
CC(C)NC(=O)OCc1c(COC(=O)NC(C)C)n(C)c2c1ccc1cc(Cl)c(Cl)cc12	13.1	–	26.5	20.9	54.8	29.3	29.3	23.8	26.6	19.5	–	–	–	–	–
Oc1ccc(C[C@@H]2CN[C@H](Cc3ccc(O)c(Br)c3)CN2)cc1	> 100	> 100	–	–	> 100	> 100	> 100	> 100	–	> 100	–	–	–	–	–
Clc1sc(Cl)c2c1[C@H](Br)C[C@@H]2Cl	33.5	–	> 100	49.5	> 100	> 100	83.8	99	> 100	40.8	–	–	–	–	–
C[C@@H](CCO)OC1OC(COC(=O)C(C)(C)C)C(OC(=O)C(C)(C)C)C(OC(=O)C(C)(C)C)C1OC(=O)C(C)(C)C (stereo not given in full)	95.7	62.5	–	> 100	> 100	35.7	> 100	> 100	> 100	> 100	–	–	–	–	–
CCC(C)C(NC(=O)C(CCCC[N+](=N)N)NC(=O)C(CCCC[N+](=N)N)NC(=O)c1ccc(OC)cc1)C(=O)NC(CCCC[N+](=N)N)C(=O)N1CCCC1C(=O)NC(CCCCN)C(=O)NC(CC(C)C)C(N)=O (stereo not given)	> 100	–	> 100	> 100	> 100	> 100	> 100	> 100	> 100	> 100	–	–	–	–	–
COc1ccc(C(=O)/C=C/c2ccc(OCCCCCCCCCCOc3ccc(/C=C/C(=O)c4ccc(OC)c(OC)c4)cc3)cc2)c(OC)c1	–	> 100	> 100	–	> 100	> 100	> 100	> 100	> 100	> 100	–	–	–	–	–
Cc1ccc(S(=O)(=O)N2CCc3cc(O)c([N+](=O)[O-])cc32)cc1	> 100	> 100	> 100	> 100	> 100	–	> 100	> 100	> 100	> 100	–	–	–	–	–
O=C1c2cc3c(cc2-c2c1c1cc(F)c(F)cc1c(=O)n2C[C@H](O)CO)OCO3	0.48	> 100	–	–	> 100	–	–	> 100	–	0.422	0.0232	0.0426	0.423	0.0724	0.125
CN(C)CCN1C(=O)N(CCN(C)C)c2c3cc(O)ccc3nc3c([N+](=O)[O-])ccc1c23	33.3	–	26.7	24.3	28.4	20.1	24.4	36	24.2	32.9	–	–	–	–	–
Cn1c(=O)c2[nH]c(Nc3cccc(Cl)c3)nc2n(C)c1=O	–	> 10	> 10	> 10	> 10	> 10	–	> 10	–	> 10	–	–	–	–	–
COc1ccc2c(c1)-c1nc(=S)n(CCN(C)C)c3ccc([N+](=O)[O-])c(c13)N2	2.04	–	2.19	2.29	13.3	2.25	2.44	2.2	3.87	7.82	–	–	–	–	–
O=c1ccn([C@@H]2C=C(CO)[C@@H](O)[C@H]2O)c(=O)[nH]1	> 625	> 625	–	> 625	> 625	> 625	> 625	> 625	> 625	–	–	–	–	–	–
CO[C@H](C)[C@](O)(C(=O)OCC1=CCN2CC[C@@H](O)[C@H]12)C(C)C	> 100	–	> 100	> 100	> 100	> 100	> 100	> 100	> 100	> 100	–	–	–	–	–
CC12CCC(=O)[C@@]1(C)CCCC2=O (stereo not given in full)	> 100	> 100	> 100	> 100	> 100	> 100	> 100	> 100	> 100	–	–	–	–	–	–
CN(C)C(=O)/N=C1\SC(=Nc2ccccc2)C(=Nc2ccccc2)N1c1ccc([N+](=O)[O-])cc1	> 100	> 100	> 100	–	–	> 100	> 100	> 100	> 100	> 100	–	–	–	–	–
CC1=[N+]([O-])C2(CCCC2)N(O)C1(C)C	–	> 100	> 100	> 100	> 100	> 100	> 100	> 100	> 100	> 100	–	–	–	–	–
O=C1CN(c2ccccc2)C(=O)C1C(=O)Nc1ccc(Cl)c(Cl)c1 (stereo not given)	6.48	9.66	–	–	24.5	17.2	14.9	–	17.2	–	–	–	–	–	–
COc1cccc(Nc2nc3c([nH]2)c(=O)n(C)c(=O)n3C)c1	–	> 10	> 10	> 10	> 10	> 10	–	> 10	–	> 10	–	–	–	–	–
CN1C2CCC1C(CO)C(=O)C2 (stereo not given)	34.2	26.2	–	> 100	> 100	–	> 100	> 100	–	> 100	–	–	–	–	–
